Test results from patent US11945822B2, “Pyrazolo-triazine and/or pyrazolo-pxrimidine derivatives as selective inhibitor of cyclin dependent kinase” (QURIENT CO., LTD., priority 2018, dated 2024).

The compounds below were run on H460 (assay: Cellular H460 viability assay (CellTiter-Glo, 72 hours)). Details: Homo sapiens, NCI-H460.
Type: cell-based
Summary of the method: (§1)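 Cells plated in 96 wells and exposed to compound 72 h at 37 °C, 5% CO2, final DMSO below 0.1%, DMSO control. Viability by CellTiter-Glo luminescence, duplicate.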

IC50 [nM] | SMILES
1000 to 10000 | CC(C)c1cnn2c(NCc3ccccc3-c3cc4ccccc4[nH]3)nc(N3CCNC(=O)C3)nc12 [Compound 175]
< 1000 | CC(C)c1cnn2c(NCc3ccccc3-n3cccn3)nc(N3CCC(N4CCNCC4)CC3)nc12 [Compound 174]
< 1000 | CC(C)c1cnn2c(N[C@@H](C)c3ccccc3-n3cccn3)nc(N3CCC(N)CC3)nc12 [Compound 21]

The compounds below were run on MV4-11 (assay: Cellular MV4-11 viability assay (CellTiter-Glo, 72 hours)). Details: Homo sapiens.
Type: cell-based
Summary of the method: as §1

IC50 [nM] | SMILES
1000 to 10000 | CC(C)c1cnn2c(NCc3ccccc3-c3cc4ccccc4[nH]3)nc(N3CCNC(=O)C3)nc12 [Compound 175]
< 1000 | CC(C)c1cnn2c(NCc3ccccc3-n3cccn3)nc(N3CCC(N4CCNCC4)CC3)nc12 [Compound 174]
< 1000 | CC(C)c1cnn2c(N[C@@H](C)c3ccccc3-n3cccn3)nc(N3CCC(N)CC3)nc12 [Compound 21]

The compounds below were run on HCT116 (assay: Cellular HCT116 viability assay (CellTiter-Glo, 72 hours)). Details: Homo sapiens, HCT-116.
Type: cell-based
Summary of the method: as §1

IC50 [nM] | SMILES
1000 to 10000 | CC(C)c1cnn2c(NCc3ccccc3-c3cc4ccccc4[nH]3)nc(N3CCNC(=O)C3)nc12 [Compound 175]
< 1000 | CC(C)c1cnn2c(N[C@@H](C)c3ccccc3-n3cccn3)nc(N3CCC(N)CC3)nc12 [Compound 21]

These compounds were tested against T1, CDK1/Cyclin B (Homo sapiens, UniProt P06493) (assay: Enzymatic assay for CDK1 (FRET based LANCE Ultra kinase assay)). Details: read-out: CDK1 enzymatic activity (IC50 range).
T1 construct: purchased Invitrogen PR4768C
T1 sequence (P06493 whole entry): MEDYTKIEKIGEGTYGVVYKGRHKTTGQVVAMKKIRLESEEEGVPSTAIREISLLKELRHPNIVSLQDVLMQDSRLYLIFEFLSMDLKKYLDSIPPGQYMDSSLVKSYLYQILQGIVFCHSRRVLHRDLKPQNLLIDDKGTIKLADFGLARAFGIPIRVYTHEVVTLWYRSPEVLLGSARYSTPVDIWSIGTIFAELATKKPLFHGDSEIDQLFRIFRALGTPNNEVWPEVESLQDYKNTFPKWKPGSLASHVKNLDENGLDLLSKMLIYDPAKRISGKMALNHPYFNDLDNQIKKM
T1 sequence (P14635 whole entry partner): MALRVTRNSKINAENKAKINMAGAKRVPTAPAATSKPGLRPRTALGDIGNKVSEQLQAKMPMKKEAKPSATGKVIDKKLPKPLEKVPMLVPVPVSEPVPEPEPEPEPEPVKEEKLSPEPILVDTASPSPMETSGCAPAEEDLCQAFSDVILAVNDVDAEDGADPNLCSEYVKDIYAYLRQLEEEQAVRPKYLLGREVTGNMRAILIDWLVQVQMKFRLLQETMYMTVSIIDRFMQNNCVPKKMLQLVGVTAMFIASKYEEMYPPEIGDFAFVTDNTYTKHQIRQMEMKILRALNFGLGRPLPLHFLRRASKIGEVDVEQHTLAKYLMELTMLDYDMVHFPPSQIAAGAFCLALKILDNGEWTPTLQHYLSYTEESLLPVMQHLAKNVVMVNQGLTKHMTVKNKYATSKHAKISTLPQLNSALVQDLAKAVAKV
Type: biochemical
Summary of the method: (§2)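 LANCE Ultra TR-FRET: ULight-MBP peptide (68 nM) with ATP at Km, […], 60 min at 23° C. EDTA plus Eu-anti-phospho-MBP added, another 60 min, then 665/615 nm emission read. Compounds tested as 8-dose 4-fold DMSO dilutions.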

IC50 [nM] | SMILES
> 1000 | CC(C)c1cnn2c(NCc3ccccc3-c3cc4ccccc4[nH]3)nc(N3CCNC(=O)C3)nc12 [Compound 175]
> 1000 | CC(C)c1cnn2c(NCc3ccccc3-n3cccn3)nc(N3CCC(N4CCNCC4)CC3)nc12 [Compound 174]
> 1000 | CC(C)c1cnn2c(N[C@@H](C)c3ccccc3-n3cccn3)nc(N3CCC(N)CC3)nc12 [Compound 21]

Each compound was assayed on MM.1S (assay: Cellular MM.1S viability assay (CellTiter-Glo, 72 hours)). Details: Homo sapiens, MM1.S.
Type: cell-based
From the text: Human T-cell acute lymphoblastic leukemia cell line, MOLT-4 (ATCC, Cat #CRL-1582), Human multiple myeloma cell line, RPMI-8226 (Invitrogen, Cat #22400-089) and MM.1S (ATCC, Cat #CRL-2974), NSCLC (Non-small cell lung cancer) cell line H460 (ATCC, Cat #HTB-177), Human colon colorectal carcinoma cell line HCT116 (ATCC, Cat #CCL-247), Human acute monocytic leukemia cell line MV4-11 (ATCC, Cat #CRL-9591), OVCAR-3 (ATCC, Cat #HTB-161) and A2780 (ECACC, Cat #93112519) were obtained from ATCC. Cells were grown in RPMI-1640 media (Invitrogen, Cat #22400-089) supplemented with 10% FBS (Invitrogen, Cat #10099141) and 1% penicillin/streptomycin (Invitrogen, Cat #15070063) and cultured at 37° C., 5% CO2 in a humidified chamber. All cell lines were routinely tested for mycoplasma.
The effect of the CDK7 inhibitor to inhibit the growth of target cancer cells was evaluated through the 72 hours time period of viability assay. Briefly, the candidate cell line ware plated in 96 well plate at the following density of cells respectively. 1×10^4 cells/well for MOLT-4, RPMI-8226, MV4-11 and MM.1S, 5×10^3 for H460, HCT116 and OVCAR-3 and IX 10^3 for A2780. After 24 hours, the cells were treated with various concentrations of the compound (ranging from 0.0015 uM to 10 uM). DMSO solvent without compound served as a control and final DMSO concentration less than 0.1%. After 72 hours of incubation at 37° C., 5% CO2 incubator, cells were analyzed for the viability using the CellTiter-Glo Luminescent Cell Viability Assay (Promega, Cat #G7570). All viability assays were performed in duplicate and Luminescence was read using an Envision (Perkin Elmer, USA). Data was analyzed using XLfit software.

IC50 [nM] | SMILES
1000 to 10000 | CC(C)c1cnn2c(NCc3ccccc3-c3cc4ccccc4[nH]3)nc(N3CCNC(=O)C3)nc12 [Compound 175]
≤ 1000 | CC(C)c1cnn2c(NCc3ccccc3-n3cccn3)nc(N3CCC(N4CCNCC4)CC3)nc12 [Compound 174]
≤ 1000 | CC(C)c1cnn2c(N[C@@H](C)c3ccccc3-n3cccn3)nc(N3CCC(N)CC3)nc12 [Compound 21]

These compounds were tested against T2, CDK2/Cyclin A (Homo sapiens, UniProt P24941) (assay: Enzymatic assay for CDK2 (FRET based LANCE Ultra kinase assay)). Details: read-out: CDK2 enzymatic activity (IC50 range).
T2 construct: purchased Invitrogen PV6290
Type: biochemical
Summary of the method: as §2

IC50 [nM] | SMILES
> 1000 | CC(C)c1cnn2c(NCc3ccccc3-c3cc4ccccc4[nH]3)nc(N3CCNC(=O)C3)nc12 [Compound 175]
> 1000 | CC(C)c1cnn2c(NCc3ccccc3-n3cccn3)nc(N3CCC(N4CCNCC4)CC3)nc12 [Compound 174]
> 1000 | CC(C)c1cnn2c(N[C@@H](C)c3ccccc3-n3cccn3)nc(N3CCC(N)CC3)nc12 [Compound 21]

The compounds below were run against T3, CDK7/Cyclin H/MNAT1 (Homo sapiens, UniProt P50613) (assay: Enzymatic assay for CDK7 (FRET based LANCE Ultra kinase assay)). Details: CDK7 over CDK1.
T3 construct: purchased Invitrogen PR6749B
T3 sequence (P50613 whole entry): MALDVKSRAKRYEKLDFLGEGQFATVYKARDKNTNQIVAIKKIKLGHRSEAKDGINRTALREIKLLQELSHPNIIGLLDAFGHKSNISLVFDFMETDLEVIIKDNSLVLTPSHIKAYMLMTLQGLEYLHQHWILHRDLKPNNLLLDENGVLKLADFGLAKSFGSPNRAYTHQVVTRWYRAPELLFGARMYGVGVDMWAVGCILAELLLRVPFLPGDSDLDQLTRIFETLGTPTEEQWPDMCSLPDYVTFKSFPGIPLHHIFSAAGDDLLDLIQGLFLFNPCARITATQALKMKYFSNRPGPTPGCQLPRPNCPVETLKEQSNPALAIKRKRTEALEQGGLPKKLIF
T3 sequence (P51946 whole entry partner): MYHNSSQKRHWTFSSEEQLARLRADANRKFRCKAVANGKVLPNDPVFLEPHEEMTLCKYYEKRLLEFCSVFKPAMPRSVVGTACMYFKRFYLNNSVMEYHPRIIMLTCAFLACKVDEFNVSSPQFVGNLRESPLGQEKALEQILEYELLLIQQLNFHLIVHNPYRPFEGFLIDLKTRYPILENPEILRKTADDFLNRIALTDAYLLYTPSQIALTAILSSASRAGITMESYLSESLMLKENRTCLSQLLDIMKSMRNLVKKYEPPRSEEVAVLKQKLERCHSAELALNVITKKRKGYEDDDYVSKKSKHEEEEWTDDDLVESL
T3 sequence (P51948 whole entry partner): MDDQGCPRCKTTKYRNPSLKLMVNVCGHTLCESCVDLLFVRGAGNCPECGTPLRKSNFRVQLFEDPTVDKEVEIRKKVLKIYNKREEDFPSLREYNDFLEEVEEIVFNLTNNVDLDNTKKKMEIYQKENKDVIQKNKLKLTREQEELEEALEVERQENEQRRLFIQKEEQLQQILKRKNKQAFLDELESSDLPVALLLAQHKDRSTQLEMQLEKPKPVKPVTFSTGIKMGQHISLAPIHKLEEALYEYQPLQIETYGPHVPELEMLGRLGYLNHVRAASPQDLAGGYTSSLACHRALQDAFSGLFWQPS
Type: biochemical
Summary of the method: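 LANCE Ultra TR-FRET kinase assay using a ULight-labeled peptide substrate and a Eu-labeled anti-phospho antibody, with ATP at its Km. Purified CDK/cyclin complex was added to compound after brief centrifugation.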

CDK1/CDK7: Selectivity of CDK7 inhibition over CDK1 inhibition | SMILES
A (A=greater than 200 fold) | CC(C)c1cnn2c(NCc3ccccc3-c3cc4ccccc4[nH]3)nc(N3CCNC(=O)C3)nc12 [Compound 175]
A (A=greater than 200 fold) | CC(C)c1cnn2c(NCc3ccccc3-n3cccn3)nc(N3CCC(N4CCNCC4)CC3)nc12 [Compound 174]
A (A=greater than 200 fold) | CC(C)c1cnn2c(N[C@@H](C)c3ccccc3-n3cccn3)nc(N3CCC(N)CC3)nc12 [Compound 21]

Same assay, conditions: CDK7 over CDK2

CDK2/CDK7: Selectivity of CDK7 inhibition over CDK2 inhibition | SMILES
A (A=greater than 200 fold) | CC(C)c1cnn2c(NCc3ccccc3-n3cccn3)nc(N3CCC(N4CCNCC4)CC3)nc12 [Compound 174]
A (A=greater than 200 fold) | CC(C)c1cnn2c(N[C@@H](C)c3ccccc3-n3cccn3)nc(N3CCC(N)CC3)nc12 [Compound 21]

SMILES | CDK2/CDK7: Selectivity of CDK7 inhibition over CDK2 inhibition
CC(C)c1cnn2c(NCc3ccccc3-c3cc4ccccc4[nH]3)nc(N3CCNC(=O)C3)nc12 [Compound 175] | B (B=less than 200 fold, but greater than 20 fold)

Same assay, conditions: CDK7 over CDK5

SMILES | CDK5/CDK7: Selectivity of CDK7 inhibition over CDK5 inhibition
CC(C)c1cnn2c(NCc3ccccc3-c3cc4ccccc4[nH]3)nc(N3CCNC(=O)C3)nc12 [Compound 175] | B (B=less than 200 fold, but greater than 20 fold)
CC(C)c1cnn2c(NCc3ccccc3-n3cccn3)nc(N3CCC(N4CCNCC4)CC3)nc12 [Compound 174] | B (B=less than 200 fold, but greater than 20 fold)
CC(C)c1cnn2c(N[C@@H](C)c3ccccc3-n3cccn3)nc(N3CCC(N)CC3)nc12 [Compound 21] | A (A=greater than 200 fold)

Same assay, conditions: read-out: CDK7 enzymatic activity (IC50 range)

IC50 [nM] | SMILES
< 100 | CC(C)c1cnn2c(NCc3ccccc3-c3cc4ccccc4[nH]3)nc(N3CCNC(=O)C3)nc12 [Compound 175]
< 100 | CC(C)c1cnn2c(NCc3ccccc3-n3cccn3)nc(N3CCC(N4CCNCC4)CC3)nc12 [Compound 174]
< 100 | CC(C)c1cnn2c(N[C@@H](C)c3ccccc3-n3cccn3)nc(N3CCC(N)CC3)nc12 [Compound 21]

The compounds below were run against T4, CDK5/p25 (Homo sapiens, UniProt Q00535) (assay: Enzymatic assay for CDK5 (FRET based LANCE Ultra kinase assay)). Details: read-out: CDK5 enzymatic activity (IC50 range).
T4 construct: purchased Invitrogen PR8543B
T4 sequence (Q00535 whole entry): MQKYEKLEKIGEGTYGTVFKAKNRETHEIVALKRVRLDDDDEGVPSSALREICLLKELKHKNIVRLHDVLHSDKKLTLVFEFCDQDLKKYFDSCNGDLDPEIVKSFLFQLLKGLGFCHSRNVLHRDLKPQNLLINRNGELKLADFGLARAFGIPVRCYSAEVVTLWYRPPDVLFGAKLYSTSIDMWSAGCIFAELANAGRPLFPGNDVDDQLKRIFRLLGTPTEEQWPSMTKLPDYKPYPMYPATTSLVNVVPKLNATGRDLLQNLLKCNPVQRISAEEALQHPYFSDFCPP
T4 sequence (Q15078 99-307 partner limits assumed): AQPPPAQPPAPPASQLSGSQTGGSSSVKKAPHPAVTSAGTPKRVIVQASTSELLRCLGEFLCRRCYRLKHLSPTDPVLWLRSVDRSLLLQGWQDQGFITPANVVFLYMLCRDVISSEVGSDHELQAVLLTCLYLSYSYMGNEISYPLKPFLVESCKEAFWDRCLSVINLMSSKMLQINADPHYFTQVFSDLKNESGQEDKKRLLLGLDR
Type: biochemical
Summary of the method: as §2

IC50 [nM] | SMILES
> 1000 | CC(C)c1cnn2c(NCc3ccccc3-c3cc4ccccc4[nH]3)nc(N3CCNC(=O)C3)nc12 [Compound 175]
100 to 1000 | CC(C)c1cnn2c(NCc3ccccc3-n3cccn3)nc(N3CCC(N4CCNCC4)CC3)nc12 [Compound 174]
> 1000 | CC(C)c1cnn2c(N[C@@H](C)c3ccccc3-n3cccn3)nc(N3CCC(N)CC3)nc12 [Compound 21]

What follows are compounds tested on RPMI-8226 (assay: Cellular RPMI-8226 viability assay (CellTiter-Glo, 72 hours)). Details: Homo sapiens.
Type: cell-based
Summary of the method: as §1

IC50 [µM] | SMILES
1 to 10 | CC(C)c1cnn2c(NCc3ccccc3-c3cc4ccccc4[nH]3)nc(N3CCNC(=O)C3)nc12 [Compound 175]
1 to 10 | CC(C)c1cnn2c(N[C@@H](C)c3ccccc3-n3cccn3)nc(N3CCC(N)CC3)nc12 [Compound 21]

Each compound was assayed on MOLT-4 (assay: Cellular MOLT-4 viability assay (CellTiter-Glo, 72 hours)). Details: Homo sapiens, MOLT4 viability assay.
Type: cell-based
Summary of the method: as §1

IC50 [µM] | SMILES
> 10 | CC(C)c1cnn2c(NCc3ccccc3-n3cccn3)nc(N3CCC(N4CCNCC4)CC3)nc12 [Compound 174]
